Laboratory results reported in patent US20240228489A1, “POSITIVE ALLOSTERIC MODULATORS OF THE MUSCARINIC ACETYLCHOLINE RECEPTOR M1” (Vanderbilt University, priority 2021, published 2024).

Key:
[1] = target: T1, human mAChR M1 (Homo sapiens, UniProt P11229); experiment: mAChR M1 cell-based functional assay (calcium mobilization), PAM mode: increase in the EC20 acetylcholine response
T1 sequence (P11229 1-460): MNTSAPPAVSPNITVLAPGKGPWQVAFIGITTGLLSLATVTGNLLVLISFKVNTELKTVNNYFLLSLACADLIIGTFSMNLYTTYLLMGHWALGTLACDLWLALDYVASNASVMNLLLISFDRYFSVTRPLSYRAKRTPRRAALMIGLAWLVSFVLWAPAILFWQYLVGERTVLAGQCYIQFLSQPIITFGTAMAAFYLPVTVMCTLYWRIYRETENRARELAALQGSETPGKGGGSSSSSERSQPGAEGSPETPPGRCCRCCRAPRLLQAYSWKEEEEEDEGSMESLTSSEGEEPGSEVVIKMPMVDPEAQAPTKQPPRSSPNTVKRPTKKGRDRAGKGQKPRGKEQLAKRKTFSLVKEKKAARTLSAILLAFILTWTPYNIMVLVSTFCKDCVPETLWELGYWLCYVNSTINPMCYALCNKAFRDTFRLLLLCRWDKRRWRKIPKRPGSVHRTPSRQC
Procedure, shortened: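 PAM readout is the concentration-dependent rise in the EC20 acetylcholine calcium signal, fitted to a four-parameter logistic (EC50, Emax). Compounds were preincubated from 4 s before ACh at 144 s (EC20) and 230 s (EC80). hM1-expressing CHO-K1 cells loaded with Fluo-4, FDSS ratio read.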

[2] = target: T1, human mAChR M1; experiment: mAChR M1 cell-based functional assay (calcium mobilization), agonist mode: compound alone, Emax relative to acetylcholine maximum; details: for Agonist Activity Human M1 EC50 / EC50: human mAChR M1; for Emax: relative to the maximum for acetylcholine
Procedure, shortened: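 Agonist activity is the concentration-dependent rise in intracellular calcium (Fluo-4, 1 Hz read) after compound addition, measured before any acetylcholine was added, in stable hM1 CHO-K1 cells. Curves were 11-point, 1:3 dilutions fitted by four-parameter logistic. Emax is given as a fraction of maximal acetylcholine response.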

| Structure (SMILES) | EC50 [1] | Emax [1] | Agonist Activity Human M1 EC50 [2] | Emax [2] | EC50 [2] |
| --- | --- | --- | --- | --- | --- |
| [2H]C1([2H])c2ncccc2C(=O)N1Cc1c(F)cc(-c2ccc(F)c3nn(C)cc23)cc1OCC(C)C [Compound 214, 6-(2-fluoro-4-(7-fluoro-2-methyl-2H-indazol-4-yl)-6-isobutoxybenzyl)-6,7-dihydro-5H-pyrrolo[3,4-b]pyridin-5-one-7,7-d2] | 1290 nM | 79% | Inactive | 2% | – |
| [2H]C1([2H])c2ncccc2C(=O)N1Cc1c(F)cc(-c2ccc(Cl)c3nn(C)cc23)cc1OCC(C)C [Compound 215, 6-(4-(7-chloro-2-methyl-2H-indazol-4-yl)-2-fluoro-6-isobutoxybenzyl)-6,7-dihydro-5H-pyrrolo[3,4-b]pyridin-5-one-7,7-d2] | 2380 nM | 83% | Inactive | 2% | – |
| [2H]C1([2H])c2ncccc2C(=O)N1Cc1c(F)cc(-c2ccc(C(F)(F)F)c3nn(C)cc23)cc1OCC(C)C [Compound 216, 6-(2-fluoro-6-isobutoxy-4-(2-methyl-7-(trifluoromethyl)-2H-indazol-4-yl)benzyl)-6,7-dihydro-5H-pyrrolo[3,4-b]pyridin-5-one-7,7-d2] | 3180 nM | 83% | Inactive | 2% | – |
| [2H]C1([2H])c2ncccc2C(=O)N1Cc1c(F)cc(-c2ccnc3nn(C)cc23)cc1OCC(C)C [Compound 217, 6-(2-fluoro-6-isobutoxy-4-(2-methyl-2H-pyrazolo[3,4-b]pyridin-4-yl)benzyl)-6,7-dihydro-5H-pyrrolo[3,4-b]pyridin-5-one-7,7-d2] | 207 nM | 78% | – | 23% | 2860 nM |
| [2H]C1([2H])c2ncccc2C(=O)N1Cc1c(F)cc(-c2ccc(OCCOC)c3nn(C)cc23)cc1OCC(C)C [Compound 218, 6-(2-fluoro-6-isobutoxy-4-(7-(2-methoxyethoxy)-2-methyl-2H-indazol-4-yl)benzyl)-6,7-dihydro-5H-pyrrolo[3,4-b]pyridin-5-one-7,7-d2] | 516 nM | 79% | – | 25% | 7760 nM |
| [2H]C1([2H])c2ncccc2C(=O)N1Cc1c(Cl)cc(-c2cccc3nn(C)cc23)cc1C1CC1 [Compound 219, 6-(2-chloro-6-cyclopropyl-4-(2-methyl-2H-indazol-4-yl)benzyl)-6,7-dihydro-5H-pyrrolo[3,4-]pyridin-5-one-7,7-d2] | 490 nM | 89% | Inactive | 8% | – |
| [2H]C1([2H])c2ncccc2C(=O)N1Cc1c(Cl)cc(-c2cccc3nn(C([2H])([2H])[2H])cc23)cc1C1CC1 [Compound 220, 6-(2-chloro-6-cyclopropyl-4-(2-(methyl-d3)-2H-indazol-4-yl)benzyl)-6,7-dihydro-5H-pyrrolo[3,4-b]pyridin-5-one-7,7-d2] | 472 nM | 86% | Inactive | 8% | – |
| [2H]C1([2H])c2ncccc2C(=O)N1Cc1c(F)cc(-c2cccc3nn(C)cc23)cc1N1CCC1 [Compound 221, 6-(2-(azetidin-1-yl)-6-fluoro-4-(2-methyl-2H-indazol-4-yl)benzyl)-6,7-dihydro-5H-pyrrolo[3,4-b]pyridin-5-one-7,7-d2] | 2690 nM | 82% | Inactive | 2% | – |
| [2H]C1([2H])c2ncccc2C(=O)N1Cc1c(F)cc(-c2cccc3nn(C([2H])([2H])[2H])cc23)cc1N1CCC1 [Compound 222, 6-(2-(azetidin-1-yl)-6-fluoro-4-(2-(methyl-d3)-2H-indazol-4-yl)benzyl)-6,7-dihydro-5H-pyrrolo[3,4-b]pyridin-5-one-7,7-d2] | 3780 nM | 77% | Inactive | 1% | – |
| [2H]C1([2H])c2ncccc2C(=O)N1Cc1c(F)cc(-c2cccc3nn(C)cc23)cc1C1CCCC1 [Compound 223, 6-(2-cyclopentyl-6-fluoro-4-(2-methyl-2H-indazol-4-yl)benzyl)-6,7-dihydro-5H-pyrrolo[3,4-b]pyridin-5-one-7,7-d2] | 5240 nM | 59% | Inactive | 1% | – |
| [2H]C1([2H])c2ncccc2C(=O)N1Cc1c(F)cc(-c2cccc3nn(C([2H])([2H])[2H])cc23)cc1C1CCCC1 [Compound 224, 6-(2-cyclopentyl-6-fluoro-4-(2-(methyl-d3)-2H-indazol-4-yl)benzyl)-6,7-dihydro-5H-pyrrolo[3,4-b]pyridin-5-one-7,7-d2] | 6460 nM | 62% | Inactive | 1% | – |
| [2H]C1([2H])c2ncccc2C(=O)N1Cc1c(F)cc(-c2cccc3nn(C)cc23)cc1C(F)(F)F [Compound 225, 6-(2-fluoro-4-(2-methyl-2H-indazol-4-yl)-6-(trifluoromethyl)benzyl)-6,7-dihydro-5H-pyrrolo[3,4-b]pyridin-5-one-7,7-d2] | 1370 nM | 58% | Inactive | 3% | – |
| [2H]C1([2H])c2ncccc2C(=O)N1Cc1c(F)cc(-c2cccc3nn(C([2H])([2H])[2H])cc23)cc1C(F)(F)F [Compound 226, 6-(2-fluoro-4-(2-(methyl-d3)-2H-indazol-4-yl)-6-(trifluoromethyl)benzyl)-6,7-dihydro-5H-pyrrolo[3,4-b]pyridin-5-one-7,7-d2] | 1360 nM | 54% | Inactive | 2% | – |
| [2H]C1([2H])c2ncccc2C(=O)N1Cc1c(Cl)cc(-c2cccc3nn(C)cc23)cc1Cl [Compound 227, 6-(2,6-dichloro-4-(2-methyl-2H-indazol-4-yl)benzyl)-6,7-dihydro-5H-pyrrolo[3,4-b]pyridin-5-one-7,7-d2] | 900 nM | 63% | Inactive | 1% | – |
| [2H]C1([2H])c2ncccc2C(=O)N1Cc1c(Cl)cc(-c2cccc3nn(C([2H])([2H])[2H])cc23)cc1Cl [Compound 228, 6-(2,6-dichloro-4-(2-(methyl--d3)-2H-indazol-4-yl)benzyl)-6,7-dihydro-5H-pyrrolo[3,4-b]pyridin-5-one-7,7-d2] | 380 nM | 60% | Inactive | 1% | – |
| [2H]C1([2H])c2ncccc2C(=O)N1Cc1c(F)cc(-c2cccc3nn(C)cc23)cc1N(C)C [Compound 229, 6-(2-(dimethylamino)-6-fluoro-4-(2-methyl-2H-indazol-4-yl)benzyl)-6,7-dihydro-5H-pyrrolo[3,4-b]pyridin-5-one-7,7-d2] | ≥ 10000 nM | 42% | Inactive | 4% | – |
| [2H]C1([2H])c2ncccc2C(=O)N1Cc1c(F)cc(-c2cccc3nn(C([2H])([2H])[2H])cc23)cc1N(C)C [Compound 230, 6-(2-(dimethylamino)-6-fluoro-4-(2-(methyl-d3)-2H-indazol-4-yl)benzyl)-6,7-dihydro-5H-pyrrolo[3,4-b]pyridin-5-one-7,7-d2] | ≥ 10000 nM | 38% | Inactive | 3% | – |
| [2H]C1([2H])c2ncccc2C(=O)N1Cc1c(F)cc(-c2cccc3nn(C)cc23)cc1OC [Compound 231, 6-(2-fluoro-6-methoxy-4-(2-methyl-2H-indazol-4-yl)benzyl)-6,7-dihydro-5H-pyrrolo[3,4-b]pyridin-5-one-7,7-d2] | 806 nM | 73% | Inactive | 7% | – |
| [2H]C1([2H])c2ncccc2C(=O)N1Cc1c(F)cc(-c2cccc3nn(C([2H])([2H])[2H])cc23)cc1OC [Compound 232, 6-(2-fluoro-6-methoxy-4-(2-(methyl-d3)-2H-indazol-4-yl)benzyl)-6,7-dihydro-5H-pyrrolo[3,4-b]pyridin-5-one-7,7-d2] | 760 nM | 80% | Inactive | 8% | – |
| [2H]C1([2H])c2ncccc2C(=O)N1Cc1ccc(-c2cccc3nn(C)cc23)cc1C(C)C [Compound 233, 6-(2-isopropyl-4-(2-methyl-2H-indazol-4-yl)benzyl)-6,7-dihydro-5H-pyrrolo[3,4-b]pyridin-5-one-7,7-d2] | ≥ 10000 nM | 43% | Inactive | 1% | – |
| [2H]C1([2H])c2ncccc2C(=O)N1Cc1ccc(-c2cccc3nn(C([2H])([2H])[2H])cc23)cc1C(C)C [Compound 234, 6-(2-isopropyl-4-(2-(methyl-d3)-2H-indazol-4-yl)benzyl)-6,7-dihydro-5H-pyrrolo[3,4-b]pyridin-5-one-7,7-d2] | ≥ 10000 nM | 42% | Inactive | 1% | – |
